Source: patent publication EP4603105A1, “PHARMACEUTICAL COMPOSITION CONTAINING CYCLIC COMPOUND HAVING SELECTIVE KRAS INHIBITORY EFFECT AGAINST HRAS AND NRAS” (CHUGAI SEIYAKU KABUSHIKI KAISHA, priority 2022, dated 2024)

Tests used:
[1] = system: human lung cancer strain NCI-H441; type: cell-based
How it was run: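 Proliferation was scored by […] measured after the reagent was added to cultures kept at 37°C in 5% carbon dioxide.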

HRAS wild-type protein = HRAS wild-type protein (Homo sapiens, UniProt P01112); experiment: Binding to HRAS by surface plasmon resonance (SPR), KD and KD ratio to KRAS; conditions: ratio of KD for HRAS wild-type protein to KD for KRAS
How it was run: (§1)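 Single-cycle kinetics on GDP-loaded biotin-Avi RAS captured to ~100–300 RU; 75 s ascending injections, 100 µL/min, 30°C. HBS pH 7.4 + 10 mM MgCl2/10 µM GDP/4% DMSO. 1:1 fit, KD.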

[2] = target: GDP-bound NRAS wild-type protein (Homo sapiens, UniProt P01111); experiment: Binding to NRAS by surface plasmon resonance (SPR), KD and KD ratio to KRAS; conditions: ratio of KD for GDP-bound NRAS wild-type protein to KD for KRAS
How it was run: as §1

Sequence of GDP-bound NRAS wild-type protein (P01111 whole entry): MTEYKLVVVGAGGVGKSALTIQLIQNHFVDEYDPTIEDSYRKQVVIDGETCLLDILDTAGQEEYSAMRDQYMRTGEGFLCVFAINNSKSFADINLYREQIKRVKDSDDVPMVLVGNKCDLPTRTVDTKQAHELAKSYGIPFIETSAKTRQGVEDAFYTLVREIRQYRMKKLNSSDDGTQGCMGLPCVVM
Sequence of HRAS wild-type protein (P01112 whole entry): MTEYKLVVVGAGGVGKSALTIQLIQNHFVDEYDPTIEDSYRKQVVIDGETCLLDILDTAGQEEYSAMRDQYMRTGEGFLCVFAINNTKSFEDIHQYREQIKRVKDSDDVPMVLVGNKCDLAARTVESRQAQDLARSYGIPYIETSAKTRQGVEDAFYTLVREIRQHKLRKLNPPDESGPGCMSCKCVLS

Row | SMILES | IC50 [1] | HRAS /KRAS (HRAS wild-type protein) | NRAS /KRAS [2]
1 | CC[C@H](C)[C@@H]1NC(=O)[C@H](COC)N(C)C(=O)C[C@@H](C(=O)N2CCOCC2)N(C)C(=O)[C@H](C2CCCC2)N(C)C(=O)C2(CCCC2)NC(=O)[C@@H]2CCCN2C(=O)[C@H](CCc2cc(F)c(C(F)(F)F)c(F)c2)NC(=O)CN(C)C(=O)[C@H](Cc2ccc(C(F)(F)F)cc2)N2CCCCC[C@@H](C2=O)N(C)C(=O)CN(C)C1=O [PP0845] | 135 nM | B (a compound having 3 or more and less than 10 is denoted as B) | B (a compound having 3 or more and less than 10 is denoted as B)
2 | CC[C@H](C)[C@@H]1NC(=O)[C@H](COC)N(C)C(=O)C[C@@H](C(=O)N2CCOCC2)N(C)C(=O)[C@H](C2CCCC2)N(C)C(=O)C2(CCCC2)NC(=O)[C@@H]2CC(F)(F)CN2C(=O)[C@H](CCc2cc(F)c(C(F)(F)F)c(F)c2)NC(=O)CN(C)C(=O)[C@H](Cc2ccc(C(F)(F)F)cc2)N2CCCCC[C@@H](C2=O)N(C)C(=O)CN(C)C1=O [PP0846] | 22.2 nM | B (a compound having 3 or more and less than 10 is denoted as B) | B (a compound having 3 or more and less than 10 is denoted as B)
3 | CC[C@H](C)[C@@H]1NC(=O)[C@H](COC)N(C)C(=O)C[C@@H](C(=O)N2CCOCC2)N(C)C(=O)[C@H](C2CCCC2)N(C)C(=O)C2(CCCC2)NC(=O)[C@@H]2C[C@H](O)CN2C(=O)[C@H](CCc2cc(F)c(C(F)(F)F)c(F)c2)NC(=O)CN(C)C(=O)[C@H](Cc2ccc(C(F)(F)F)cc2)N2CCCCC[C@@H](C2=O)N(C)C(=O)CN(C)C1=O [PP0847] | 136 nM | B (a compound having 3 or more and less than 10 is denoted as B) | B (a compound having 3 or more and less than 10 is denoted as B)
4 | CCO[C@@H]1C[C@H]2C(=O)NC3(CCC3)C(=O)N(C)[C@@H](C3CCCC3)C(=O)N(C)[C@H](C(=O)N3CCOCC3)CC(=O)N(C)[C@@H](COC)C(=O)N[C@@H]([C@@H](C)CC)C(=O)N(C)CC(=O)N(C)[C@H]3CCCCCN(C3=O)[C@@H](Cc3ccc(C(F)(F)F)cc3)C(=O)N(C)CC(=O)N[C@@H](CCc3ccc(C(F)(F)F)c(F)c3)C(=O)N2C1 [PP0848] | 37.5 nM | B (a compound having 3 or more and less than 10 is denoted as B) | B (a compound having 3 or more and less than 10 is denoted as B)
5 | CCO[C@@H]1C[C@H]2C(=O)NC3(CCC3)C(=O)N(C)[C@@H](C3CCCC3)C(=O)N(C)[C@H](C(=O)N3CCOCC3)CC(=O)N(C)[C@@H](COC)C(=O)N[C@@H]([C@@H](C)CC)C(=O)N(C)CC(=O)N(C)[C@H]3CCCCCN(C3=O)[C@@H](Cc3ccc(C(F)(F)F)cc3)C(=O)N(C)CC(=O)N[C@@H](CCc3ccc(C(F)(F)F)c(Cl)c3)C(=O)N2C1 [PP0849] | 35.7 nM | B (a compound having 3 or more and less than 10 is denoted as B) | B (a compound having 3 or more and less than 10 is denoted as B)
6 | CCO[C@@H]1C[C@H]2C(=O)NC3(CCC3)C(=O)N(C)[C@@H](C3CCCC3)C(=O)N(C)[C@H](C(=O)N3CCOCC3)CC(=O)N(C)[C@@H](COC)C(=O)N[C@@H]([C@@H](C)CC)C(=O)N(C)CC(=O)N(C)[C@H]3CCCCCN(C3=O)[C@@H](Cc3ccc(C(F)(F)F)cc3)C(=O)N(C)CC(=O)N[C@@H](CCc3ccc(C)cc3)C(=O)N2C1 [PP0850] | 3090 nM | B (a compound having 3 or more and less than 10 is denoted as B) | B (a compound having 3 or more and less than 10 is denoted as B)
7 | CCO[C@@H]1C[C@H]2C(=O)NC3(CCC3)C(=O)N(C)[C@@H](C3CCCC3)C(=O)N(C)[C@H](C(=O)N3CCOCC3)CC(=O)N(C)[C@@H](CC(F)F)C(=O)N[C@@H]([C@@H](C)CC)C(=O)N(C)CC(=O)N(C)[C@H]3CCCCCN(C3=O)[C@@H](Cc3ccc(C(F)(F)F)cc3)C(=O)N(C)CC(=O)N[C@@H](CCc3cc(F)c(C(F)(F)F)c(F)c3)C(=O)N2C1 [PP0854] | 21.7 nM | B (a compound having 3 or more and less than 10 is denoted as B) | B (a compound having 3 or more and less than 10 is denoted as B)
8 | CCO[C@@H]1C[C@H]2C(=O)NC3(CCC3)C(=O)N(C)[C@@H](C3CCCC3)C(=O)N(C)[C@H](C(=O)N3CCOCC3)CC(=O)N(C)[C@@H](Cc3cccc(Cl)c3)C(=O)N[C@@H]([C@@H](C)CC)C(=O)N(C)CC(=O)N(C)[C@H]3CCCCCN(C3=O)[C@@H](Cc3ccc(C(F)(F)F)cc3)C(=O)N(C)CC(=O)N[C@@H](CCc3cc(F)c(C(F)(F)F)c(F)c3)C(=O)N2C1 [PP0857] | 111 nM | B (a compound having 3 or more and less than 10 is denoted as B) | B (a compound having 3 or more and less than 10 is denoted as B)
9 | CCO[C@@H]1C[C@H]2C(=O)NC3(CCC3)C(=O)N(C)[C@@H](C3CCCC3)C(=O)N(C)[C@H](C(=O)N3CCOCC3)CC(=O)N(C)[C@@H](COC)C(=O)N[C@@H]([C@@H](C)CC)C(=O)NCC(=O)N(C)[C@H]3CCCCCN(C3=O)[C@@H](Cc3ccc(C(F)(F)F)cc3)C(=O)N(C)CC(=O)N[C@@H](CCc3cc(F)c(C(F)(F)F)c(F)c3)C(=O)N2C1 [PP0858] | 52.5 nM | B (a compound having 3 or more and less than 10 is denoted as B) | B (a compound having 3 or more and less than 10 is denoted as B)
10 | CCO[C@@H]1C[C@H]2C(=O)NC3(CCC3)C(=O)N(C)[C@@H](C3CCCC3)C(=O)N(C)[C@H](C(=O)N(C)C)CC(=O)N(C)[C@@H](COC)C(=O)N[C@@H]([C@@H](C)CC)C(=O)NCC(=O)N(C)[C@H]3CCCCCN(C3=O)[C@@H](Cc3ccc(C(F)(F)F)cc3)C(=O)N(C)CC(=O)N[C@@H](CCc3cc(F)c(C(F)(F)F)c(F)c3)C(=O)N2C1 [PP0859] | 22.4 nM | B (a compound having 3 or more and less than 10 is denoted as B) | B (a compound having 3 or more and less than 10 is denoted as B)
11 | CC[C@H](C)[C@@H]1NC(=O)[C@H](COC)N(C)C(=O)C[C@@H](C(=O)N2CCOCC2)N(C)C(=O)[C@H](C2CCCC2)N(C)C(=O)C2(CCC2)NC(=O)[C@@H]2CC(F)(F)CN2C(=O)[C@H](CCc2cc(F)c(C(F)(F)F)c(F)c2)NC(=O)CN(C)C(=O)[C@H](Cc2ccc(C(F)(F)F)cc2)N2CCCCC[C@@H](C2=O)N(C)C(=O)CNC1=O [PP0861] | 20.7 nM | B (a compound having 3 or more and less than 10 is denoted as B) | B (a compound having 3 or more and less than 10 is denoted as B)
12 | CCO[C@@H]1C[C@H]2C(=O)NC3(CCC3)C(=O)N(C)[C@@H](C3CCCC3)C(=O)N(C)[C@H](C(=O)N3CCOCC3)CC(=O)N(C)[C@@H](COC)C(=O)N[C@@H]([C@@H](C)CC)C(=O)N3CC[C@H]3C(=O)N(C)[C@H]3CCCCCN(C3=O)[C@@H](Cc3ccc(C(F)(F)F)cc3)C(=O)N(C)CC(=O)N[C@@H](CCc3cc(F)c(C(F)(F)F)c(F)c3)C(=O)N2C1 [PP0863] | 228 nM | B (a compound having 3 or more and less than 10 is denoted as B) | B (a compound having 3 or more and less than 10 is denoted as B)
13 | CCO[C@@H]1C[C@H]2C(=O)NC3(CCC3)C(=O)N(C)[C@@H](C3CCCC3)C(=O)N(C)[C@H](C(=O)N(C)C)CC(=O)N(C)[C@@H](COC)C(=O)N[C@@H]([C@@H](C)CC)C(=O)N3CC[C@H]3C(=O)N(C)[C@H]3CCCCCN(C3=O)[C@@H](Cc3ccc(C(F)(F)F)cc3)C(=O)N(C)CC(=O)N[C@@H](CCc3cc(F)c(C(F)(F)F)c(F)c3)C(=O)N2C1 [PP0864] | 185 nM | B (a compound having 3 or more and less than 10 is denoted as B) | B (a compound having 3 or more and less than 10 is denoted as B)
14 | CC[C@H](C)[C@@H]1NC(=O)[C@H](COC)N(C)C(=O)C[C@@H](C(=O)N2CCOCC2)N(C)C(=O)[C@H](C2CCCC2)N(C)C(=O)C2(CCC2)NC(=O)[C@@H]2CCCN2C(=O)[C@H](CCc2cc(F)c(C(F)(F)F)c(F)c2)NC(=O)CN(C)C(=O)[C@H](Cc2ccc(C(F)(F)F)cc2)N2CCCCC[C@@H](C2=O)N(C)C(=O)[C@@H]2CCN2C1=O [PP0865] | 767 nM | B (a compound having 3 or more and less than 10 is denoted as B) | B (a compound having 3 or more and less than 10 is denoted as B)
15 | CC[C@H](C)[C@@H]1NC(=O)[C@H](COC)N(C)C(=O)C[C@@H](C(=O)N2CCOCC2)N(C)C(=O)[C@H](C2CCCC2)N(C)C(=O)C2(CCC2)NC(=O)[C@@H]2CC(F)(F)CN2C(=O)[C@H](CCc2cc(F)c(C(F)(F)F)c(F)c2)NC(=O)CN(C)C(=O)[C@H](Cc2ccc(C(F)(F)F)cc2)N2CCCCC[C@@H](C2=O)N(C)C(=O)[C@@H]2CCN2C1=O [PP0866] | 197 nM | B (a compound having 3 or more and less than 10 is denoted as B) | B (a compound having 3 or more and less than 10 is denoted as B)
